In patent publication US7998950B2, “Antiviral compounds” (Gilead Sciences, Inc., priority 2008, dated 2011) one finds EC50 data, which are given here for 62 compounds.

One test relates to HIV-IIIb. The test is described as follows: Antiviral assay in MT-2 cells infected with HIV-IIIb. In kind it is cell-based. The conditions noted are these: Human immunodeficiency virus 1, IIIB, MT2, 120 h, MT-2 cells infected with HIV-IIIb, m.o.i. 0.01, 10% FBS, 5 days at 37° C., CellTiter-Glo chemiluminescence; read-out: EC50 in MT-2 cells.
For the compound `CNC(=O)c1c(O)c2ncc(Cc3ccc(F)cc3)c3c2n(c1=O)C=C(C(=O)NC(CO)CO)O3` [A-94], the EC50 was found to be 49 nM.

Turning to `CCN(CC)C(=O)C1=Cn2c(=O)c(C(=O)NC)c(O)c3ncc(Cc4ccc(F)cc4)c(c32)O1` [Example 103], the EC50 came to 10 nM.

For the compound `CCNC(=O)C1=Cn2c(=O)c(C(=O)NCCOC)c(O)c3ncc(Cc4ccc(F)cc4)c(c32)O1` [Example 104], the EC50 was 3 nM.

On to `CCN(CC)C(=O)C1=Cn2c(=O)c(C(=O)NCCOC)c(O)c3ncc(Cc4ccc(F)cc4)c(c32)O1` [Example 105], for which the EC50 was 71 nM.

As to `COCCNC(=O)c1c(O)c2ncc(Cc3ccc(F)cc3)c3c2n(c1=O)C=C(C(=O)NCC1(O)CC1)O3` [Example 106], the EC50 came out at 6 nM.

With `CNC(=O)c1c(O)c2ncc(Cc3ccc(F)cc3)c3c2n(c1=O)C=C(C(=O)N1CCOCC1(C)C)O3` [Example 107], the EC50 is 25 nM.

With `COCCNC(=O)c1c(O)c2ncc(Cc3ccc(F)cc3)c3c2n(c1=O)C=C(C(=O)N1CCOCC1(C)C)O3` [Example 108], the EC50 is 7.5 nM.

In the case of `COCCNC(=O)c1c(O)c2ncc(Cc3ccc(F)cc3)c3c2n(c1=O)C=C(C(=O)NCCN1CCCC1)O3` [Example 109], the EC50 stood at 37.5 nM.

As to `COCCNC(=O)c1c(O)c2ncc(Cc3ccc(F)cc3)c3c2n(c1=O)C=C(C(=O)N1CCN(CC(F)(F)F)CC1)O3` [Example 110], the concentration for a half-maximal effect (EC50) came out at 27.4 nM.

Turning to `CCNC(=O)C1=Cn2c(=O)c(C(=O)NCCC#N)c(O)c3ncc(Cc4ccc(F)cc4)c(c32)O1` [Example 112], the EC50 stood at 11.7 nM.

For `CNC(=O)c1c(O)c2ncc(Cc3ccc(F)cc3)c3c2n(c1=O)C=C(C(=O)NCCOC)O3` [Example 113], the EC50 amounted to 5.3 nM.

`COCCNC(=O)C1=Cn2c(=O)c(C(=O)NCCOC)c(O)c3ncc(Cc4ccc(F)cc4)c(c32)O1` [Example 114]: the concentration giving a half-maximal response (EC50) is 6.4 nM.

With `CNC(=O)c1c(O)c2ncc(Cc3ccc(F)cc3)c3c2n(c1=O)C=C(C(=O)NCC(F)(F)F)O3` [Example 115], the EC50 is 3.9 nM.

On to `[2H]C([2H])([2H])NC(=O)c1c(O)c2ncc(Cc3ccc(F)cc3)c3c2n(c1=O)C=C(C(=O)NCC)O3` [Example 116], for which the EC50 is 2.5 nM.

For the compound `CNC(=O)c1c(O)c2ncc(Cc3ccc(F)cc3)c3c2n(c1=O)C=C(C(=O)NCC(C)(C)N1CCOCC1)O3` [Example 117], the EC50 was 14 nM.

With `CNC(=O)c1c(O)c2ncc(Cc3ccc(F)c(Cl)c3)c3c2n(c1=O)C=C(C(=O)NCC(C)(C)C#N)O3` [Example 118], the EC50 was 0.7 nM.

With `CNC(=O)c1c(O)c2ncc(Cc3ccc(F)cc3)c3c2n(c1=O)C=C(C(=O)NCC(C)(C)N(C)C)O3` [Example 119], the EC50 came out at 2.4 nM.

Take `CNC(=O)c1c(O)c2ncc(Cc3ccc(F)cc3)c3c2n(c1=O)C=C(C(=O)NC(C)(C)CNC(=O)OC(C)(C)C)O3` [Example 120]: the EC50 worked out at 19 nM.

For the compound `CNC(=O)c1c(O)c2ncc(Cc3ccc(F)cc3)c3c2n(c1=O)C=C(C(=O)NC(C)(C)CN)O3` [Example 121], the concentration giving a half-maximal response (EC50) turned out to be 5.8 nM.

With `CNC(=O)c1c(O)c2ncc(Cc3ccc(F)cc3)c3c2n(c1=O)C=C(C(=O)NCC(C)(C)NC(=O)c1nnc(C)o1)O3` [Example 122], the EC50 is 64 nM.

As for `CNC(=O)c1c(O)c2ncc(Cc3ccc(F)cc3)c3c2n(c1=O)C=C(C(=O)NCC(C)(C)N)O3` [Example 123], the EC50 came to 35 nM.

With `CNC(=O)c1c(O)c2ncc(Cc3ccc(F)cc3)c3c2n(c1=O)C=C(C(=O)NC(C)(C)CO)O3` [Example 126], the EC50 is 3.3 nM.

With `COCCNC(=O)c1c(O)c2ncc(Cc3ccc(F)cc3)c3c2n(c1=O)C=C(C(=O)NC(C)(C)CO)O3` [Example 127], the EC50 was 5 nM.

With `CC(C)(CO)NC(=O)C1=Cn2c(=O)c(C(=O)NC3CC3)c(O)c3ncc(Cc4ccc(F)cc4)c(c32)O1` [Example 128], the EC50 stood at 7.1 nM.

`CNC(=O)c1c(O)c2ncc(Cc3ccc(F)cc3)c3c2n(c1=O)C=C(C(=O)N1CCCCC1)O3` [Example 131]: the 50% effective concentration (EC50) came to 13.9 nM.

Turning to `N#CCCNC(=O)c1c(O)c2ncc(Cc3ccc(F)cc3)c3c2n(c1=O)C=C(C(=O)N1CCCCC1)O3` [Example 132], the EC50 was 37.4 nM.

Consider `CNC(=O)c1c(O)c2ncc(Cc3ccc(F)cc3)c3c2n(c1=O)C=C(C(=O)NCC1(O)CC1)O3` [Example 133], for which the EC50 stood at 7 nM.

With `CNC(=O)c1c(O)c2ncc(Cc3ccc(F)cc3)c3c2n(c1=O)C=C(C(=O)NCC(C)(C)C#N)O3` [Example 134], the EC50 stood at 2.5 nM.

For the compound `CC(C)(C#N)CNC(=O)C1=Cn2c(=O)c(C(=O)NC3CC3)c(O)c3ncc(Cc4ccc(F)cc4)c(c32)O1` [Example 135], the 50% effective concentration (EC50) stood at 2.7 nM.

On to `CNC(=O)c1c(O)c2ncc(Cc3ccc(F)cc3)c3c2n(c1=O)C=C(C(=O)NC(C)(C)C)O3` [Example 136], for which the 50% effective concentration (EC50) stood at 7.2 nM.

Consider `CNC(=O)c1c(O)c2ncc(Cc3ccc(F)cc3)c3c2n(c1=O)C=C(C(=O)NCC1(C#N)CC1)O3` [Example 138], for which the EC50 came out at 1.5 nM.

Consider `CC(C)(C)NC(=O)C1=Cn2c(=O)c(C(=O)NCCO)c(O)c3ncc(Cc4ccc(F)cc4)c(c32)O1` [Example 139], for which the EC50 stood at 2.4 nM.

With `CNC(=O)c1c(O)c2ncc(Cc3ccc(F)cc3)c3c2n(c1=O)C=C(C(=O)NCC(C)(C)O)O3` [Example 140], the concentration for a half-maximal effect (EC50) came to 3.5 nM.

For `CNC(=O)c1c(O)c2ncc(Cc3ccc(F)cc3)c3c2n(c1=O)C=C(C(=O)NCCOC(F)(F)F)O3` [Example 141], the concentration for a half-maximal effect (EC50) was 3.7 nM.

As to `CNC(=O)c1c(O)c2ncc(Cc3ccc(F)cc3)c3c2n(c1=O)C=C(C(=O)NCC1(O)CCCCC1)O3` [Example 142], the concentration giving a half-maximal response (EC50) was determined as 1.9 nM.

As for `N#CCNC(=O)c1c(O)c2ncc(Cc3ccc(F)cc3)c3c2n(c1=O)CC(F)(F)CN3` [Example 143], the EC50 turned out to be 4 nM.

In the case of `O=C(NCCN1CCNS1(=O)=O)c1c(O)c2ncc(Cc3ccc(F)cc3)c3c2n(c1=O)CC(F)(F)CN3` [Example 144], the EC50 was 20 nM.

In the case of `CC(C)(CO)CNC(=O)c1c(O)c2ncc(Cc3ccc(F)cc3)c3c2n(c1=O)CC(F)(F)CN3` [Example 145], the EC50 amounted to 9 nM.

Turning to `O=C(NCCc1ncc[nH]1)c1c(O)c2ncc(Cc3ccc(F)cc3)c3c2n(c1=O)CC(F)(F)CN3` [Example 146], the EC50 stood at 5.5 nM.

For `Cn1cnnc1CCNC(=O)c1c(O)c2ncc(Cc3ccc(F)cc3)c3c2n(c1=O)CC(F)(F)CN3` [Example 148], the EC50 came to 45.6 nM.

In the case of `O=C(NCC(F)(F)CO)c1c(O)c2ncc(Cc3ccc(F)cc3)c3c2n(c1=O)CC(F)(F)CN3` [Example 149], the EC50 turned out to be 5 nM.

As for `O=C(NCC1(CO)CCC1)c1c(O)c2ncc(Cc3ccc(F)cc3)c3c2n(c1=O)CC(F)(F)CN3` [Example 150], the EC50 was 6 nM.

In the case of `O=C(NCCCN1CCCC1)c1c(O)c2ncc(Cc3ccc(F)cc3)c3c2n(c1=O)CC(F)(F)CN3` [Example 151], the concentration for a half-maximal effect (EC50) was 23 nM.

Regarding `O=C(NCC1(CO)CC1)c1c(O)c2ncc(Cc3ccc(F)cc3)c3c2n(c1=O)CC(F)(F)CN3` [Example 152], the EC50 turned out to be 7 nM.

As for `O=C(NCCCN1CCOCC1)c1c(O)c2ncc(Cc3ccc(F)cc3)c3c2n(c1=O)CC(F)(F)CN3` [Example 153], the EC50 is 12 nM.

As to `CC(C)(C#N)CNC(=O)c1c(O)c2ncc(Cc3ccc(F)cc3)c3c2n(c1=O)CC(F)(F)CN3` [Example 154], the EC50 was 6 nM.

As to `O=C(NCCN1CCCC1)c1c(O)c2ncc(Cc3ccc(F)cc3)c3c2n(c1=O)CC(F)(F)CN3` [Example 156], the EC50 came to 34 nM.

`C[C@@H]1CCCN1CCCNC(=O)c1c(O)c2ncc(Cc3ccc(F)cc3)c3c2n(c1=O)CC(F)(F)CN3` [Example 158]: the EC50 was 8.2 nM.

Turning to `O=C(NCCCN1CCCC1=O)c1c(O)c2ncc(Cc3ccc(F)cc3)c3c2n(c1=O)CC(F)(F)CN3` [Example 161], the EC50 amounted to 4.2 nM.

With `O=C(NCCN1CCCS1(=O)=O)c1c(O)c2ncc(Cc3ccc(F)cc3)c3c2n(c1=O)CC(F)(F)CN3` [Example 162], the concentration for a half-maximal effect (EC50) was 4.6 nM.

Take `CNC(=O)c1c(O)c2ncc(Cc3ccc(F)cc3)c3c2n(c1=O)CC(F)(F)CN3C` [Example 163]: the EC50 stood at 18.5 nM.

With `CNC(=O)[C@@H]1Cn2c(=O)c(C(=O)NCCOC)c(O)c3ncc(Cc4ccc(F)cc4)c(c32)O1` [Example 164], the EC50 came out at 37 nM.

With `CCNC(=O)c1c(O)c2ncc(Cc3ccc(F)cc3)c3c2n(c1=O)C[C@@H](C(=O)NC)O3` [Example 165], the half-maximal effective concentration (EC50) was 8 nM.

For the compound `CNC(=O)[C@@H]1Cn2c(=O)c(C(=O)NCCCO)c(O)c3ncc(Cc4ccc(F)cc4)c(c32)O1` [Example 166], the EC50 is 9 nM.

For the compound `CNC(=O)[C@@H]1Cn2c(=O)c(C(N)=O)c(O)c3ncc(Cc4ccc(F)cc4)c(c32)O1` [Example 167], the EC50 came to 25.6 nM.

For `CNC(=O)c1c(O)c2ncc(Cc3ccc(F)cc3)c3c2n(c1=O)C[C@@H](C(N)=O)O3` [Example 168], the EC50 is 12 nM.

`CNC(=O)c1c(O)c2ncc(Cc3ccc(F)cc3)c3c2n(c1=O)C[C@@H](C(=O)NCC(C)(C)O)O3` [Example 174]: the EC50 came to 2.6 nM.

The same test, now with this note: Human immunodeficiency virus 1, IIIB, MT2, 120 h, read-out: EC50 in MT-2 cells (nM).
For `CNC(=O)c1c(O)c2ncc(Cc3ccc(F)cc3)c3c2n(c1=O)C=C(C1=NC(C)(C)CO1)O3` [Example 129], the EC50 stood at 2.2 nM.

Take `CNC(=O)c1c(O)c2ncc(Cc3ccc(F)cc3)c3c2n(c1=O)C=C(c1nnc(C)o1)O3` [Example 130]: the 50% effective concentration (EC50) was found to be 4.6 nM.

Regarding `CNC(=O)c1c(O)c2ncc(Cc3ccc(F)cc3)c3c2n(c1=O)C=C(COC)O3` [Example 137], the EC50 stood at 5 nM.

Staying with this test, now noted: MT-2 cells infected with HIV-IIIb, m.o.i. 0.01, 10% FBS, 5 days at 37° C., CellTiter-Glo chemiluminescence; listed as A-177; read-out: EC50 in MT-2 cells.
On to `CCN(CC)C(=O)C1=Cn2c(=O)c(C(=O)NC)c(O)c3ncc(Cc4ccc(F)cc4)c(c32)O1` [Example 125], for which the half-maximal effective concentration (EC50) is 5.5 nM.

Staying with this test, now noted: MT-2 cells infected with HIV-IIIb, m.o.i. 0.01, 10% FBS, 5 days at 37° C., CellTiter-Glo chemiluminescence; read-out: EC50 in MT-2 cells.
In the case of `CNC(=O)c1c(O)c2ncc(Cc3ccc(F)cc3)c3c2n(c1=O)CC(CO)(CO)O3` [A-109], the EC50 was found to be 7.1 nM.
